Assay results: ChEMBL document CHEMBL2401638, “Design and synthesis of biquinolone-isoniazid hybrids as a new class of antitubercular and antimicrobial agents” (Eur J Med Chem, 2013)
In brackets after ≈: the same amount, converted by molar mass.

Assays:
Salmonella typhi = assay: Antibacterial activity against Salmonella typhi MTCC 98 assessed as growth inhibition by broth microdilution method; format: functional, Salmonella enterica subsp. enterica serovar Typhi; conditions: Salmonella enterica
[1] = test system: Mycobacterium tuberculosis; assay: Antituberculosis activity against Mycobacterium tuberculosis H37Rv assessed as growth inhibition at 250 ug/ml after 12 to 28 days by Lowenstein-Jensen method relative to control; format: functional; conditions: read-out: GI
Bacillus subtilis = assay: Antibacterial activity against Bacillus subtilis MTCC 441 assessed as growth inhibition by broth microdilution method; format: functional
Candida albicans = assay: Antifungal activity against Candida albicans MTCC 227 assessed as growth inhibition by broth microdilution method; format: functional
Staphylococcus aureus = assay: Antibacterial activity against Staphylococcus aureus MTCC 96 assessed as growth inhibition by broth microdilution method; format: functional
Pseudomonas aeruginosa = assay: Antibacterial activity against Pseudomonas aeruginosa MTCC 1688 assessed as growth inhibition by broth microdilution method; format: functional
Escherichia coli = assay: Antibacterial activity against Escherichia coli MTCC 443 assessed as growth inhibition by broth microdilution method; format: functional
Clostridium tetani = assay: Antibacterial activity against Clostridium tetani MTCC 449 assessed as growth inhibition by broth microdilution method; format: functional
Trichophyton rubrum = assay: Antifungal activity against Trichophyton rubrum MTCC 296 assessed as growth inhibition by broth microdilution method; format: functional
[2] = Cytotoxicity in Artemia cysts assessed as mortality of nauplii after 24 hrs; format: organism-based; conditions: in vivo
[3] = test system: Mycobacterium tuberculosis; assay: Antituberculosis activity against Mycobacterium tuberculosis H37Rv assessed as growth inhibition after 12 to 28 days by Lowenstein-Jensen method; format: functional
[4] = Cytotoxicity in Artemia cysts assessed as mortality of nauplii at 5 ug/mL after 24 hrs relative to control; format: organism-based; conditions: in vivo
[5] = Cytotoxicity in Artemia cysts assessed as mortality of nauplii at 10 ug/mL after 24 hrs relative to control; format: organism-based; conditions: in vivo
[6] = Cytotoxicity in Artemia cysts assessed as mortality of nauplii at 40 ug/mL after 24 hrs relative to control; format: organism-based; conditions: in vivo
[7] = Cytotoxicity in Artemia cysts assessed as mortality of nauplii at 20 ug/mL after 24 hrs relative to control; format: organism-based; conditions: in vivo
[8] = Cytotoxicity in Artemia cysts assessed as mortality of nauplii at 50 ug/mL after 24 hrs relative to control; format: organism-based; conditions: in vivo
[9] = Cytotoxicity in Artemia cysts assessed as mortality of nauplii at 30 ug/mL after 24 hrs relative to control; format: organism-based; conditions: in vivo

Compound	MIC (Salmonella typhi) [µg/mL]	inhibition of growth at 250 µg/mL [1] [%]	MIC (Bacillus subtilis) [µg/mL]	MIC (Candida albicans) [µg/mL]	MIC (Staphylococcus aureus) [µg/mL]	MIC (Pseudomonas aeruginosa) [µg/mL]	MIC (Escherichia coli) [µg/mL]	MIC (Clostridium tetani) [µg/mL]	MIC (Trichophyton rubrum) [µg/mL]	LC50 at 24 h [2] [µg/mL]	MIC [3] [µg/mL]	mortality at 24 h, 5 ug/mL [4] [%]	mortality at 24 h, 10 ug/mL [5] [%]	mortality at 24 h, 40 ug/mL [6] [%]	mortality at 24 h, 20 ug/mL [7] [%]	mortality at 24 h, 50 ug/mL [8] [%]	mortality at 24 h, 30 ug/mL [9] [%]
C=CCn1c(=O)c(C2C(C(=O)OC)=C(N)N(NC(=O)c3ccncc3)C3=C2C(=O)CC(C)(C)C3)cc2cc(OC)ccc21 (stereo not drawn)	200	45	250	1000	250	250	200	200	500	–	–	–	–	–	–	–	–
O=C(O)c1cn(C2CC2)c2cc(N3CCNCC3)c(F)cc2c1=O [CIPROFLOXACIN]	25	–	–	–	50	–	25	–	–	–	–	–	–	–	–	–	–
C=CCn1c(=O)c(C2C(C(=O)OCC)=C(N)N(NC(=O)c3ccncc3)C3=C2C(=O)CCC3)cc2cc(OC)ccc21 (stereo not drawn)	500	54	200	250	125	200	250	100	1000	–	–	–	–	–	–	–	–
COc1cc([C@@H]2c3cc4c(cc3[C@@H](O[C@@H]3O[C@@H]5CO[C@@H](C)O[C@H]5[C@H](O)[C@H]3O)[C@H]3COC(=O)[C@H]23)OCO4)cc(OC)c1O [ETOPOSIDE]	–	–	–	–	–	–	–	–	–	7.46 (≈ 12.7 µM)	–	–	–	–	–	–	–
C=CCn1c(=O)c(C2C(C(=O)OCC)=C(N)N(NC(=O)c3ccncc3)C3=C2C(=O)CCC3)cc2ccccc21 (stereo not drawn)	250	51	500	500	250	500	500	250	> 1000	–	–	–	–	–	–	–	–
COC1=CC(=O)C[C@@H](C)[C@]12Oc1c(Cl)c(OC)cc(OC)c1C2=O [GRISEOFULVIN]	–	–	–	500	–	–	–	–	100	–	–	–	–	–	–	–	–
C=CCn1c(=O)c(C2C(C(=O)OC(C)C)=C(N)N(NC(=O)c3ccncc3)C3=C2C(=O)CCC3)cc2cc(C)ccc21 (stereo not drawn)	200	22	500	1000	500	500	250	500	1000	–	–	–	–	–	–	–	–
O=C(N[C@H](CO)[C@H](O)c1ccc([N+](=O)[O-])cc1)C(Cl)Cl [CHLORAMPHENICOL]	50	–	50	–	50	50	50	50	–	–	–	–	–	–	–	–	–
C=CCn1c(=O)c(C2C(C(=O)OC)=C(N)N(NC(=O)c3ccncc3)C3=C2C(=O)CCC3)cc2cc(C)ccc21 (stereo not drawn)	250	58	62.5	500	500	100	500	500	> 1000	–	–	–	–	–	–	–	–
NNC(=O)c1ccncc1 [ISONIAZID]	–	99	–	–	–	–	–	–	–	–	0.2 (≈ 1.46 µM)	–	–	–	–	–	–
C=CCn1c(=O)c(C2C(C(=O)OC)=C(N)N(NC(=O)c3ccncc3)C3=C2C(=O)CCC3)cc2cc(OC)ccc21 (stereo not drawn)	125	98	50	1000	200	125	100	125	> 1000	19.7 (≈ 35.4 µM)	50 (≈ 90 µM)	10	20	80	40	90	60
C=CCn1c(=O)c(C2C(C(=O)OC(C)C)=C(N)N(NC(=O)c3ccncc3)C3=C2C(=O)CCC3)cc2cc(OC)ccc21 (stereo not drawn)	250	27	250	250	250	250	200	250	1000	–	–	–	–	–	–	–	–
C=CCn1c(=O)c(C2C(C(=O)OC(C)C)=C(N)N(NC(=O)c3ccncc3)C3=C2C(=O)CCC3)cc2ccccc21 (stereo not drawn)	125	65	250	1000	500	500	100	500	500	–	–	–	–	–	–	–	–
C=CCn1c(=O)c(C2C(C(=O)OC)=C(N)N(NC(=O)c3ccncc3)C3=C2C(=O)CC(C)(C)C3)cc2cc(Cl)ccc21 (stereo not drawn)	200	87	500	500	200	500	250	100	1000	–	–	–	–	–	–	–	–
C=CCn1c(=O)c(C2C(C(=O)OCC)=C(N)N(NC(=O)c3ccncc3)C3=C2C(=O)CCC3)cc2cc(C)ccc21 (stereo not drawn)	500	23	250	500	100	250	500	62.5	100	–	–	–	–	–	–	–	–
CCn1cc(C(=O)O)c(=O)c2cc(F)c(N3CCNCC3)cc21 [NORFLOXACIN]	10	–	100	–	10	10	10	50	–	–	–	–	–	–	–	–	–
C=CCn1c(=O)c(C2C(C(=O)OC(C)C)=C(N)N(NC(=O)c3ccncc3)C3=C2C(=O)CC(C)(C)C3)cc2cc(OC)ccc21 (stereo not drawn)	250	74	250	1000	500	250	200	500	500	–	–	–	–	–	–	–	–
C=CCn1c(=O)c(C2C(C(=O)OCC)=C(N)N(NC(=O)c3ccncc3)C3=C2C(=O)CCC3)cc2cc(Cl)ccc21 (stereo not drawn)	250	87	250	250	100	500	100	125	1000	–	–	–	–	–	–	–	–
NYSTATIN	–	–	–	100	–	–	–	–	100	–	–	–	–	–	–	–	–
C=CCn1c(=O)c(C2C(C(=O)OCC)=C(N)N(NC(=O)c3ccncc3)C3=C2C(=O)CC(C)(C)C3)cc2cc(Cl)ccc21 (stereo not drawn)	200	56	200	1000	250	100	200	250	500	–	–	–	–	–	–	–	–
C=CCn1c(=O)c(C2C(C(=O)OC)=C(N)N(NC(=O)c3ccncc3)C3=C2C(=O)CCC3)cc2cc(Cl)ccc21 (stereo not drawn)	200	89	500	1000	250	500	250	200	1000	–	–	–	–	–	–	–	–
C=CCn1c(=O)c(C2C(C(=O)OCC)=C(N)N(NC(=O)c3ccncc3)C3=C2C(=O)CC(C)(C)C3)cc2ccccc21 (stereo not drawn)	100	84	500	250	250	500	50	500	500	–	–	–	–	–	–	–	–
C=CCn1c(=O)c(C2C(C(=O)OC(C)C)=C(N)N(NC(=O)c3ccncc3)C3=C2C(=O)CC(C)(C)C3)cc2ccccc21 (stereo not drawn)	25	78	500	1000	500	250	200	500	250	–	–	–	–	–	–	–	–
C=CCn1c(=O)c(C2C(C(=O)OC)=C(N)N(NC(=O)c3ccncc3)C3=C2C(=O)CCC3)cc2ccccc21 (stereo not drawn)	250	74	100	500	125	50	500	125	500	–	–	–	–	–	–	–	–
CO[C@H]1/C=C/O[C@@]2(C)Oc3c(C)c(O)c4c(O)c(c(/C=N/N5CCN(C)CC5)c(O)c4c3C2=O)NC(=O)/C(C)=C\C=C\[C@H](C)[C@H](O)[C@@H](C)[C@@H](O)[C@@H](C)[C@H](OC(C)=O)[C@@H]1C [RIFAMPIN]	–	98	–	–	–	–	–	–	–	–	40 (≈ 48.6 µM)	–	–	–	–	–	–
C=CCn1c(=O)c(C2C(C(=O)OC)=C(N)N(NC(=O)c3ccncc3)C3=C2C(=O)CC(C)(C)C3)cc2ccccc21 (stereo not drawn)	200	74	125	250	200	125	200	200	> 1000	–	–	–	–	–	–	–	–
CC1(C)S[C@@H]2[C@H](NC(=O)[C@H](N)c3ccccc3)C(=O)N2[C@H]1C(=O)O [AMPICILLIN]	100	–	250	–	250	–	100	250	–	–	–	–	–	–	–	–	–
C=CCn1c(=O)c(C2C(C(=O)OC(C)C)=C(N)N(NC(=O)c3ccncc3)C3=C2C(=O)CCC3)cc2cc(Cl)ccc21 (stereo not drawn)	500	89	200	500	200	200	250	200	500	–	–	–	–	–	–	–	–
